Several values for one entry are separate records, joined by “and”; a condition that tells them apart may be missing. Equal values may be shown once. Read-outs that look alike come from different tables or passages of the source.
Assays:
C. lusitaniae = assay: In vitro susceptibility testing, C. lusitaniae clinical isolate; format: cell-based; settings: Clavispora lusitaniae; clinical isolate; read-out: IC50 C. lusitaniae
Source text: (§1) The yeasts included in the present study were Candida albicans ATCC 10231 (American Type Culture Collection) and a collection of yeasts recovered from a variety of clinical specimens, i.e., blood, urine, genital swabs, bronchoalveolar lavage, nail specimens, collected at the Microbiology Unit, St. Orsola Malpighi University Hospital, Bologna, Italy. The clinical strain isolates were identified by standard procedures, including colony morphology on chromogenic agar (CHROMagar Candida medium, Becton Dickinson, Heidelberg, Germany) and confirmed by MALDI Biotyper System using matrix-assisted laser desorption ionization–time of flight mass spectrometry (MALDI-TOF MS, Bruker Daltonik, GmbH, Germany).
(§2) The in vitro antifungal activity of the chalcones was evaluated by a microdilution broth method in accordance with the guidelines provided by the EUCAST Edef 7.3 [22]. Briefly, all strains were cultured on Sabauraud dextrose, then inocula, prepared at 0.5 McFarland, were diluted 1:20 in RPMI-1640 medium (Gibco®, ThermoFisher Scientific Inc., Waltham, MA, USA), containing glucose 2%, 0.3% levo-glutamine buffered to pH 7.0 with 0.165 M 3-(N-morpholino)propanesulfonic acid (MOPS) to yield 1-5 × 10^5 cells/mL. A total of 100 µL of the yeast suspension was inoculated in a 96-well microplate and incubated with 100 µL of serially 2-fold dilution of the compound in the range 200–6.25 µM. The following controls were included: yeast suspensions incubated in RPMI-1640 culture medium (positive growth control), or supplemented with dilutions of DMSO, or fluconazole (Sigma-Aldrich, St. Louis, MO, USA) as a commercial drug. To check the background turbidity of reagents and the sterility of the procedure, dilutions of each compound were incubated in RPMI-1640 culture medium, without yeast inoculum. The inoculated plate was incubated at 37 °C for 24 h, and subsequently the optical density at 630 nm was measured by the Multiskan Ascent microplate reader (Thermo Fisher Scientific Inc.). The effectiveness of the compounds was expressed as percent inhibition relative to the positive growth control when the inhibition […] the 50% at 100 µM. The IC50 value was determined by interpolation of the dose–response curves generated by plotting the percentages of growth inhibition, relative to the drug-free control (set to 100% of growth), as a function of the tested concentrations (on a logarithm scale). Statistical analysis was carried out by the nonlinear regression method using GraphPad Prism version 5.0 for Windows (GraphPad Software, San Diego, CA, USA). All assays were performed in triplicate and at least two independent experiments were carried out.

C. neoformans = assay: In vitro susceptibility testing, C. neoformans clinical isolate; format: cell-based; settings: Cryptococcus neoformans; clinical isolate; read-out: IC50 C. neoformans
Source text: as §1, §2

R. mucilaginosa = assay: In vitro susceptibility testing, R. mucilaginosa clinical isolate; format: cell-based; settings: clinical isolate; read-out: IC50 R. mucilaginosa
Source text: as §1, §2

S. clavata = assay: In vitro susceptibility testing, S. clavata clinical isolate; format: cell-based; settings: clinical isolate; read-out: IC50 S. clavata
Source text: as §1, §2

C. utilis = assay: In vitro susceptibility testing, C. utilis clinical isolate; format: cell-based; settings: Williopsis jadinii; clinical isolate; read-out: IC50 C. utilis
Source text: as §1, §2

[1] = Cytotoxicity test on Vero cells (WST8/CCK-8 cell viability); format: cell-based, African green monkey; settings: African green monkey, Vero cells (ATCC CCL-81), Vero cells, mean and 95% confidence interval
Experimental: (§3) African green monkey kidney cells (Vero ATCC CCL-81) were cultured in Eagle’s Minimal Essential Medium (MEM) (Sigma-Aldrich), supplemented with 10% fetal bovine serum (FBS) (Carlo Erba Reagents, Milan, Italy), 100 U/mL penicillin, and 100 µg/mL streptomycin at 37 °C with 5% CO2. For experiments, cells were seeded into 96-well plates at 10^4 cells/well, and incubated at 37 °C for 24 h. Following washes with PBS, cell monolayer was incubated with 100 µL of serially 2-fold dilution of the compound in the range 200–6.25 µM. Both untreated cells and cells incubated with medium containing solvent dilutions were included in each experiment as controls.
(§4) The cell viability was assessed by a WST8-based assay according to the manufacturer’s instructions (CCK-8, Cell Counting Kit-8, Dojindo Molecular Technologies, Rockville, MD, USA). After 72 h of incubation, culture medium was removed from each well, the monolayer was washed with PBS, and 100 µL of fresh medium containing 10 µL of CCK-8 solution were added. Following a 2 h at 37 °C, the absorbance was measured at 450/630 nm; data were calculated as the percentage of the cell viability relative to the untreated controls.

C. albicans ATCC 10231 = assay: In vitro susceptibility testing, microdilution broth (EUCAST), C. albicans control strain; format: cell-based, Candida albicans; settings: for IC50 / inhibition at 100 µM: Candida albicans; for IC50: ATCC10231, C. albicans ATCC 10231, mean and 95% confidence interval; for inhibition at 100 µM: ATCC10231, 24 h; for inhibition at 100 µM / antifungal activity against C. albicans growth, in words: C. albicans ATCC 10231; for antifungal activity against C. albicans growth, in words: screen at 100 μM
Experimental: as §2

C. tropicalis = assay: In vitro susceptibility testing, C. tropicalis clinical isolate; format: cell-based; settings: Candida tropicalis; clinical isolate; read-out: IC50 C. tropicalis
Source text: as §1, §2

C. parapsilosis = assay: In vitro susceptibility testing, C. parapsilosis clinical isolate; format: cell-based; settings: Lodderomyces parapsilosis; clinical isolate; read-out: IC50 C. parapsilosis
Source text: as §1, §2

C. krusei = assay: In vitro susceptibility testing, C. krusei clinical isolate; format: cell-based; settings: Pichia kudriavzevii; clinical isolate; read-out: IC50 C. krusei
Source text: as §1, §2

C. albicans = assay: In vitro susceptibility testing, C. albicans clinical isolate; format: cell-based; settings: Candida albicans; clinical isolate; mean and 95% confidence interval; read-out: IC50 C. albicans
Source text: as §1, §2

C. glabrata = assay: In vitro susceptibility testing, C. glabrata clinical isolate; format: cell-based; settings: Nakaseomyces glabratus; clinical isolate; read-out: IC50 C. glabrata
Source text: as §1, §2

Vero cells (ATCC CCL-81) = assay: Cytotoxicity test on Vero cells (WST8/CCK-8 cell viability); format: cell-based, African green monkey; settings: 72 h, up to the highest concentration of 200 μM
Experimental: as §3, §4

Row | IC50 (C. lusitaniae) | IC50 (C. neoformans) | IC50 (R. mucilaginosa) | IC50 (S. clavata) | IC50 (C. utilis) | IC50 (C. albicans ATCC 10231; read-out: IC50) [µM] | IC50 (C. albicans ATCC 10231; read-out: IC50 [μg/mL]) [µg/mL] | IC50 (C. tropicalis) | IC50 (C. parapsilosis) | IC50 (C. krusei) | IC50 (C. albicans) | IC50 (C. glabrata) | melting point [°C] | Structure (SMILES) | CC50 at 72 h ([1]; read-out: CC50) [µM] | CC50 at 72 h ([1]; read-out: CC50 [μg/mL]) [µg/mL] | inhibition at 100 µM (C. albicans ATCC 10231) [%] | toxicity on Vero cells, in words (Vero cells (ATCC CCL-81)) | antifungal activity against C. albicans growth, in words (C. albicans ATCC 10231)
1 | 100 µM and 25.9 µg/mL | 26.4 µM and 6.8 µg/mL | 83.7 µM and 21.7 µg/mL | 200 µM and 51.7 µg/mL | 84.5 µM and 21.9 µg/mL | 52.8 | 13.7 | 200 µM and 51.7 µg/mL | 200 µM and 51.7 µg/mL | 200 µM and 51.7 µg/mL | 62.9 µM and 16.3 µg/mL | 200 µM and 51.7 µg/mL | – | O=C(/C=C/c1ccccc1)c1cc(Cl)ccc1O [Compound 1, (E)-1-(5-Chloro-2-hydroxyphenyl)-3-phenylprop-2-en-1-one] | 174 | 45 | 65.2 ± 3.9 | – | –
2 | 38.5 µM and 10.7 µg/mL | 35.2 µM and 9.7 µg/mL | > 200 µM and > 55.3 µg/mL | 37.2 µM and 10.3 µg/mL | 100 µM and 27.7 µg/mL | 57.7 | 16 | > 200 µM and > 55.3 µg/mL | 41.5 µM and 11.5 µg/mL | > 200 µM and > 55.3 µg/mL | 100 µM and 27.7 µg/mL | > 200 µM and > 55.3 µg/mL | – | O=C(/C=C/c1cccc(F)c1)c1cc(Cl)ccc1O [Compound 3, (E)-1-(5-Chloro-2-hydroxyphenyl)-3-(3-fluorophenyl)prop-2-en-1-one] | 152 | 42 | 64.8 ± 1.5 | – | –
3 | 34.6 µM and 9.6 µg/mL | 27.1 µM and 7.5 µg/mL | 81.8 µM and 22.6 µg/mL | 200 µM and 55.3 µg/mL | 96.7 µM and 26.8 µg/mL | 48.9 | 13.5 | 200 µM and 55.3 µg/mL | > 200 µM and > 55.3 µg/mL | 200 µM and 55.3 µg/mL | 69.6 µM and 19.3 µg/mL | 200 µM and 55.3 µg/mL | – | O=C(/C=C/c1ccc(F)cc1)c1cc(Cl)ccc1O [Compound 4, (E)-1-(5-Chloro-2-hydroxyphenyl)-3-(4-fluorophenyl)prop-2-en-1-one] | > 200 | > 55.3 | 65.6 ± 3.3 | did not display any toxicity | –
4 | 48.8 µM and 14.8 µg/mL | 28.4 µM and 9.6 µg/mL | 100 µM and 33.7 µg/mL | 100 µM and 33.7 µg/mL | 33.7 µM and 11.4 µg/mL | 39.2 | 11.5 | 200 µM and 67.5 µg/mL | 100 µM and 33.7 µg/mL | 200 µM and 67.5 µg/mL | 31.4 µM and 10.6 µg/mL | 200 µM and 67.5 µg/mL | – | C#CCOc1ccc(C(=O)/C=C/c2ccc([N+](=O)[O-])cc2)c(OC)c1 [Compound 14] | > 200 | > 58.6 | 63.6 ± 6.8 | did not display any toxicity | –
5 | – | – | – | – | – | 16.8 | 4.9 | – | – | – | – | – | – | CC(C)=CCOc1ccc(C(=O)/C=C/c2cccnc2)c(O)c1 [Compound 20] | 54.3 | 15.9 | 81.5 ± 4.7 | moderately toxic | –
6 | – | – | – | – | – | – | – | – | – | – | – | – | 100 to 102 | CC(C)=CCOc1ccc(C(=O)/C=C/c2ccc([N+](=O)[O-])cc2)cc1 [Compound 34, (E)-1-(4-((3-methylbut-2-en-1-yl)oxy)phenyl)-3-(4-nitrophenyl)prop-2-en-1-one] | – | – | 37.9 ± 5.2 | – | inactive
7 | – | – | – | – | – | – | – | – | – | – | – | – | 96 to 98 | C#CCOc1ccc(C(=O)/C=C/c2cccnc2)cc1 [Compound 36, (E)-1-(4-(prop-2-yn-1-yloxy)phenyl)-3-(pyridin-3-yl)prop-2-en-1-one] | – | – | < 1 | – | devoid of any effect
8 | – | – | – | – | – | – | – | – | – | – | – | – | 99 to 101 | C#CCOc1ccc(C(=O)/C=C/c2ccncc2)cc1 [Compound 37, (E)-1-(4-(prop-2-yn-1-yloxy)phenyl)-3-(pyridin-4-yl)prop-2-en-1-one] | – | – | < 1 | – | devoid of any effect
9 | – | – | – | – | – | – | – | – | – | – | – | – | 103 to 105 | C#CCOc1ccc(C(=O)/C=C/c2ccc([N+](=O)[O-])cc2)cc1 [Compound 38, (E)-3-(4-nitrophenyl)-1-(4-(prop-2-yn-1-yloxy)phenyl)prop-2-en-1-one] | – | – | 46.3 ± 3.7 | – | inactive

Row | Structure (SMILES) | IC50 (C. lusitaniae) | IC50 (C. neoformans) | IC50 (R. mucilaginosa) | IC50 (S. clavata) | IC50 (C. utilis) | IC50 (C. albicans ATCC 10231; read-out: IC50) [µM] | IC50 (C. albicans ATCC 10231; read-out: IC50 [μg/mL]) [µg/mL] | IC50 (C. tropicalis) | IC50 (C. parapsilosis) | IC50 (C. krusei) | IC50 (C. albicans) | IC50 (C. glabrata) | melting point [°C] | CC50 at 72 h ([1]; read-out: CC50) [µM] | CC50 at 72 h ([1]; read-out: CC50 [μg/mL]) [µg/mL] | inhibition at 100 µM (C. albicans ATCC 10231) [%] | toxicity on Vero cells, in words (Vero cells (ATCC CCL-81)) | antifungal activity against C. albicans growth, in words (C. albicans ATCC 10231)
10 | OC(Cn1cncn1)(Cn1cncn1)c1ccc(F)cc1F [FLC, fluconazole, reference compound] | 50 nM and 0.015 µg/mL | 256 µM and 78.4 µg/mL | 1.6 mM and 491 µg/mL | 40 nM and 0.012 µg/mL | 1.56 µM and 0.5 µg/mL | 0.25 | 0.07 | 0.4 µM | 37 nM and 0.01 µg/mL | 64.6 µM and 19.8 µg/mL | 420 nM and 0.13 µg/mL | 14.4 µM and 4.4 µg/mL | – | – | – | – | – | –

Reference: paper PMC6359675, “Functionalization of the Chalcone Scaffold for the Discovery of Novel Lead Compounds Targeting Fungal Infections” (Molecules, 2019)
